Experimental data published in patent US5763396A, “Method of treating or preventing type 1 diabetes by oral administration of insulin” (AutoImmune Inc., priority 1995, dated 1998).
Several values for one entry are separate records, joined by “and”; a condition that tells them apart may be missing. Equal values may be shown once. Entries after “also recorded” stand apart in the source; their conditions may differ.

Columns and labels:
Type in all cases: in vivo
NOD mice [1] = assay: Effect of feeding porcine insulin on spontaneous diabetes in NOD mice (Example 1)
From the text: NOD (non-obese diabetic mice) were obtained from Taconic Laboratories (Germantown, Mass.) at 4 weeks of age. There were a total of 30 animals in each of the groups mentioned below at the beginning of the experiment. At […] of age, animals were orally administered Porcine insulin (Novo Laboratories, Danbury, Conn.). Each animal received two treatments orally twice a week until 9 weeks of age. The mice were fed either saline (control) or 10 micrograms, 100 micrograms, or 1 milligram of Porcine insulin. The animals were fed (gavaged) with an 18 gauge ball-point needle (Popper and Sons, Inc., New Hyde Park, N.Y.). Beginning at 10 weeks the animals were then fed once a week for a total of 33 weeks. Beginning at 12 weeks the urine was tested weekly for the presence of glucose using Glucosuria test tape (Eli Lilly, Indianapolis, Ind.). If an animal tested 3+ or higher on the glucose urine test, a serum sample was taken and blood glucose measured using a glucose analyzer (Beckman). If the blood glucose was 220 or higher, the animals were classified as diabetic and then sacrificed.

NOD mice [2] = assay: Glucose post oral insulin in fasting 7 week NOD mice (Example 2); conditions: for blood glucose over the next 24 hours / blood glucose change after feeding (protein load) / drop in blood glucose after feeding: 1 mg oral; for blood glucose over the next 24 hours: animals in fasting state
Experimental: In order to determine whether any endocrinologic (i.e. direct lowering of blood sugar) effects occurred following the feeding of insulin, 7 week old NOD mice (5 mice per group) were fed 1 mg of porcine insulin or 1 mg of myelin basic protein (obtained from Pel Freez, Rogers, Ark.) as a control protein. Blood glucose was then measured over the next 24 hour period. As a positive control, a separate group of animals were injected subcutaneously with 20 micrograms of Porcine insulin. All animals were kept in the fasting state.

NOD mice [3] = assay: Insulitis in insulin-fed NOD mice (preliminary experiments); conditions: fed 1 mg insulin vs PBS-fed NOD mice, data not shown
From the text: Therefore, oral administration of insulin to NOD mice appeared to be affecting the infiltration of immune system cells into the pancreas and thus halting disease progression by preserving beta cell function.

NOD mice [4] = assay: Treatment of initial stages of diabetes in NOD mice (Example 5); conditions: oral and aerosol, 0 to 1 mg, hyperglycemic NOD mice
Experimental: Insulin (0 to 1 mg as in Examples 1 and 2) will be administered to NOD mice which are suffering from hyperglycemia in an oral and aerosol form. The treatments will begin by weeks 12-20 of age, by which the serum glucose levels are at hyperglycemic concentrations in a certain percentage of animals prior to onset of diabetes.

NOD mice [5] = assay: Effect of aerosol administration of insulin on diabetes in NOD mice (Example 4); conditions: aerosol by nebulizer, 0 to 1 mg
Experimental: Insulin (0 to 1 mg as in Examples 1 and 2) will be administered to NOD mice as described above in Examples 1 and 2 except in aerosol form by nebulizer.

[6] = 20 micrograms porcine insulin subcutaneously, fasting 7 week NOD mice

| Substance | development of diabetes (NOD mice [1]; NOD mice fed 1 mg porcine insulin orally, diabetic = blood glucose 220 or higher) | development of diabetes (NOD mice [1]; NOD mice fed 10 micrograms porcine insulin orally) | development of diabetes (NOD mice [1]; NOD mice fed 100 micrograms porcine insulin orally) | incidence of diabetes (NOD mice [1]; all doses of orally administered insulin tested (10 micrograms to 1 mg)) | blood sugar on 10 representative animals (NOD mice [1]; fed 1 mg insulin, none diabetic, individual animals) | blood sugar in animals which developed diabetes (NOD mice [1]; fed 10 micrograms of insulin, individual animals) | blood sugar in animals that became diabetic (NOD mice [1]; fed 100 micrograms of insulin, individual animals) | endocrinologic (metabolic) effects (NOD mice [2]; 1 mg oral insulin, NOD mice) | blood glucose over the next 24 hours (NOD mice [2]) | blood glucose change after feeding (protein load) (NOD mice [2]; fasting 7 week NOD mice) | drop in blood glucose after feeding (NOD mice [2]; fasting 7 week NOD mice) | decrease in the glucose level (NOD mice [2]; [6]) | period over which glucose decrease persisted (NOD mice [2]; [6]) [h] | inflammatory immune system cells surrounding the pancreas (insulitis) (NOD mice [3]) | beta cell function (NOD mice [4]) | serum glucose concentrations (NOD mice [4]) | prevention of manifestation of symptoms (hyperglycemia) of Type 1 diabetes (NOD mice [5]) |
| --- | --- | --- | --- | --- | --- | --- | --- | --- | --- | --- | --- | --- | --- | --- | --- | --- | --- |
| Porcine insulin | none of the mice went on to develop diabetes; also recorded: no diabetes developed; also recorded: None of the animals developed diabetes | diabetes developed | diabetes developed | lower incidence of diabetes; also recorded: reduced the numbers of these mice which subsequently went on to develop diabetes | 174 mg/dl and 128 mg/dl and 125 mg/dl (2×) and 145 mg/dl and 123 mg/dl and 136 mg/dl and 155 mg/dl and 115 mg/dl and 130 mg/dl | 330 mg/dL and 420 mg/dL and 315 mg/dL and 459 mg/dL and 520 mg/dL and 487 mg/dL | 500 mg/dL and 290 mg/dL and 600 mg/dL and 450 mg/dL | not a metabolic effect; also recorded: no endocrinologic (metabolic) effects | gradual decrease in blood glucose | increase in blood glucose | no drop in the blood glucose | approximately 80 mg % | 4 | fewer inflammatory immune system cells surrounding the pancreas | preservation of beta cell function | reduction in serum glucose concentrations to near normal levels | effective in preventing the manifestation of symptoms |
| myelin basic protein |  |  |  |  |  |  |  |  | gradual decrease in blood glucose | increase in blood glucose | no drop in the blood glucose |  |  |  |  |  |  |
